Measured values taken from PubChem BioAssay AID1963423 (Molecular Pharmacology Branch, DTP, NCI, 2024).
Several values for one entry are separate records, joined by “and”; a condition that tells them apart may be missing. Equal entries are not always repeated.

Test system: 439559-082-T-J2-PDC complex spheroid growth
Experiment: Anticancer human tumor 439559-082-T-J2-PDC patient-derived colon adenocarcinoma cell line growth inhibition [Asc]
Settings: for viability, T/C: stronger effect = lower value
Description: Multicellular complex tumor spheroid response to apoptosis pathway targeting inhibitors Alrizomadlin, Pelcitoclax, and Dasminapant in combination with a variety of drugs and investigational agents in selected tumor cell lines
The MDM2 inhibitor alrizomadlin, the Bcl-2/Bcl-xL inhibitor pelcitoclax, and the IAPs inhibitor dasminapant were evaluated both individually and in combination with standard of care and investigational anticancer small molecules within a complex spheroid model of solid tumors. . Complex spheroids include a stromal component modeled by human endothelial cells (HUVEC) and fibroblasts modeled by human mesenchymal stem cells (MSCs). The concentration ranges selected for each drug and investigational agent were based upon clinically achievable concentrations if the clinical Cmax of the agent was known.
Compounds. The drugs and investigational agents: alrizomadlin (APG-115; NSC831270), pelcitoclax (APG-1252; NSC835773), dasminapant (APG-1387;NSC834197), TAK-243 (NSC785004), copanlisib (NSC809693), olaparib (NSC753686), talazoparib (NSC767125), cobimetinib (NSC 768068), eltanexor (KPT-8602, NSC 794443), abemaciclib (NSC 768073), sotorasib (NSC818433), adagrasib (NSC 831453), MRTX-1133 (NSC 836407), Iadademestat (ORY1001, NSC 806812), and RMC-4630 (NSC839698), were obtained from the NCI Developmental Therapeutics Program Chemical Repository. The FDA-approved anticancer drug set is available from the Developmental Therapeutics Program at https://dtp.cancer.gov/organization/dscb/obtaining/available plates.htm. […] The stock solutions were prepared in dimethyl sulfoxide (DMSO, Sigma-Aldrich, St. Louis, MO, cat. D2650) at 800-fold the tested concentration and stored at -70 degrees C prior to their use. All drugs and investigational agents were tested over a range starting from a high concentration at or near the clinical Cmax and decreasing in half-log increments. If the clinical Cmax for an agent had not been determined, the highest concentration tested was 10 microM.
The patient-derived cancer (PDC) cell lines include five colon adenocarcinomas: 186277-243-T-J2-PDC, 616215-338-R-J1-PDC, 439559-082-T-J2-PDC, 463943-066-T-J2-PDC, and 519858-162-T-J1-PDC; three pancreatic carcinomas: 323965-272-R-J2-PDC, 521955-158-R6-J3-PDC, and 521955-158-R2-J5-PDC; two uterine sarcomas: 327498-152-R-J2-PDC and 993429-296-R-J1-PDC; two rhabdomyosarcomas: 755483-174-R-J1-PDC and 772245-204-R-J1-PDC; two soft tissue sarcomas: 126254-015-R-J1-PDC and 494315-158-R-J1-PDC; two malignant fibrous histiocytomas: 317291-083-R-J1-PDC and 596521-263-R-J1-PDC; two breast carcinomas: 171881-019-R-J1-PDC and 885512-296-R-J2-PDC; and one ovarian carcinoma: 6556581-035-R-J-PDC were obtained from the NCI PDMR, (https://pdmr.cancer.gov). The established cell lines HSSY-2 synovial sarcoma (RRID:CVCL 8719), SYO-1 synovial sarcoma (RRID:CVCL_7146), MPNST malignant peripheral neural sheath tumor were obtained from the Sloan Kettering Institute. The following established cell lines were purchased from the American Type Culture Collection (ATCC, Manassas, VA), Sor the received from the NCI repository:, PANC-1 pancreatic carcinoma (CRL-1469, RRID:CVCL_0480), OVCAR-5 ovarian carcinoma (RRID:CVCL_1628), OVCAR-8 ovarian carcinoma (RRID:CVCL_1629), , MCF-7 breast carcinoma (CRL-12584, RRID:CVCL_0031), MDA-MB-231 breast carcinoma (CRL-12532, RRID:CVCL_0062), NCI-H1876 small cell lung carcinoma (CRL-5902, RRID:CVCL_1503), NCI-H510A small cell lung carcinoma (HTB-184, RRID:CVCL_1565), NCI-H1417 (CRL-5869, RRID:CVCL_1469), and NCI-H196 small cell lung carcinoma (CRL-5823, RRID:CVCL_1509). Dr. Peter Houghton (Greehey Children's Cancer Research Institute, University of Texas Health Science Center, San Antonio, TX) provided Rh-18 rhabdomyosarcoma (RRID:CVCL_1659). Pooled donor human umbilical vein endothelial cells (HUVEC, Lonza, cat. CC-2519) and human mesenchymal stem cells (hMSC, Lonza, cat. PT-2501) were purchased from Lonza (Walkersville, MD).
Cell Culture. […]

[1] = compound alone, run of 10/11/2022
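Further: spheroids exposed to agents for 7 days starting day 3 after seeding.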
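Wherever viability, T/C is given: percent of DMSO vehicle control viability with 100% = vehicle.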

Compound	viability, T/C (compound 0.0316 µM)	viability, T/C (compound 0.1 µM)	viability, T/C (compound 0.316 µM)	viability, T/C (compound 1 µM)	viability, T/C (compound 3.16 µM)	viability, T/C (compound 10 µM)	IC50 (curve of compound)	viability, T/C (compound 0.00316 µM)	viability, T/C (compound 0.01 µM)	further results
C#Cc1c(F)ccc2cc(O)cc(-c3ncc4c(N5CC6CCC(C5)N6)nc(OCC56CCCN5CC(F)C6)nc4c3F)c12 (stereo not drawn)	95.9% and 87.4% and 92.5%	77.6% and 80.5% and 82.3%	68.5% and 59.4% and 65.4%	64.9% and 53.9% and 55.5%	55.5% and 55.7% and 51.2%	41% and 37.7% and 39.6%	4300 nM and 2360 nM and 2430 nM			
C=C(F)C(=O)N1CCN(c2nc(OCC3CCCN3C)nc3c2CCN(c2cccc4cccc(Cl)c24)C3)CC1CC#N (stereo not drawn)	91.3% and 104% and 106%	90% and 103% and 109%	90.5% and 97.4% and 104%	96.6% and 97.8% and 102%	102% and 86.9% and 95%	7.1% and 14.9% and 23.5%	5670 nM and 5690 nM and 6540 nM			
C=CC(=O)N1CCN(c2nc(=O)n(-c3c(C)ccnc3C(C)C)c3nc(-c4c(O)cccc4F)c(F)cc23)C(C)C1 (stereo not drawn)	96.5% and 102% (2×)	114% and 106% and 101%	103% and 102% and 108%	104% and 106% and 114%	108% and 106% and 92.2%	103% (2×) and 101%	> 10000 nM			
CCN1C(C(=O)NC23CCC(C(=O)O)(CC2)CC3)C(c2cccc(Cl)c2F)C2(C(=O)Nc3cc(Cl)ccc32)C12CCCCC2 (stereo not drawn)							> 3000 nM			viability, T/C (compound 0.00949 µM): 105% and 100%; viability, T/C (compound 0.03 µM): 101% [middle of 15 runs]; viability, T/C (compound 0.0949 µM): 99.9% [middle of 15 runs]; viability, T/C (compound 0.3 µM): 96.8% [middle of 15 runs]; viability, T/C (compound 0.949 µM): 102% [middle of 15 runs]; viability, T/C (compound 3 µM): 92.1% [middle of 15 runs]; IC50 [1]: > 3000 nM
CCN1CCN(Cc2ccc(Nc3ncc(F)c(-c4cc(F)c5nc(C)n(C(C)C)c5c4)n3)nc2)CC1	89.4% and 96.5% and 95.8%	92% and 89.7% and 89.2%	93.1% and 92.7% and 81.8%	84.8% and 84.4% and 70.8%			> 1000 nM	105% and 98.4% and 99.2%	111% and 104% and 97.7%	
CNC(C)C(=O)NC1CN(S(=O)(=O)c2cccc(S(=O)(=O)N3CCC4CCC(C(=O)NC(c5ccccc5)c5ccccc5)N4C(=O)C(NC(=O)C(C)NC)C3)c2)CCC2CCC(C(=O)NC(c3ccccc3)c3ccccc3)N2C1=O (stereo not drawn)	98.1% [middle of 8 runs]	99.7% [middle of 9 runs]	98.3% [middle of 9 runs]	88.1% [middle of 9 runs]			> 1000 nM		103% [middle of 9 runs]	IC50 (compound alone, run of 11/15/2022): > 1000 nM
COc1c(OCCCN2CCOCC2)ccc2c3n(c(=NC(=O)c4cnc(N)nc4)nc12)CCN3	81.6% and 87.4% and 102%	78.7% and 76.9% and 72.9%	80% and 71.6% and 75.5%	58.6% and 59% and 69.4%			> 1000 nM	100% and 101% and 93.5%	104% (2×) and 90.9%	
Cc1c(S(C)(=O)=O)c(-c2cc(F)cc(N3CCN(c4ccc(NS(=O)(=O)c5ccc(NC(CCN6CCC(C(=O)OCCCP(=O)(O)O)CC6)CSc6ccccc6)c(S(=O)(=O)C(F)(F)F)c5)cc4)CC3)c2)c(-c2ccc(Cl)cc2)n1C(C)C (stereo not drawn)		97.4% [middle of 14 runs]	97.4% [middle of 14 runs]	91% [middle of 14 runs]	87.2% [middle of 14 runs]	74.9% [middle of 14 runs]				IC50 [1]: > 10000 nM
Cc1nc(N2CCC3(CC2)COC(C)C3N)c(CO)nc1Sc1ccnc(N)c1Cl (stereo not drawn)							> 3000 nM			viability, T/C (compound 0.00949 µM): 89.8% and 104% and 107%; viability, T/C (compound 0.03 µM): 93.7% and 111% and 108%; viability, T/C (compound 0.0949 µM): 102% and 99.4% and 101%; viability, T/C (compound 0.3 µM): 110% and 91.8% and 99.9%; viability, T/C (compound 0.949 µM): 99.8% and 94.1% and 92%; viability, T/C (compound 3 µM): 72.1% and 79.7% and 81.7%
Cn1ncnc1[C@H]1c2n[nH]c(=O)c3cc(F)cc(c23)N[C@@H]1c1ccc(F)cc1	102% and 105% and 107%	98.1% and 92.3% and 98.5%					> 100 nM	97.6% and 103% and 92%	95.5% and 95.2% and 97.6%	viability, T/C (compound 0.000316 µM): 104% and 97.5% and 103%; viability, T/C (compound 0.001 µM): 108% and 97.8% and 112%
NC(=O)C(=Cn1cnc(-c2cc(C(F)(F)F)cc(C(F)(F)F)c2)n1)c1cncnc1							> 300 nM			viability, T/C (compound 0.000949 µM): 111% and 110% and 105%; viability, T/C (compound 0.003 µM): 105% and 102% and 86.8%; viability, T/C (compound 0.00949 µM): 101% and 99% and 94.4%; viability, T/C (compound 0.03 µM): 101% and 91.7% and 89.8%; viability, T/C (compound 0.0949 µM): 92.7% and 89.7% and 90.7%; viability, T/C (compound 0.3 µM): 82% and 86.4% and 78.2%
NC1CCC(NC2CC2c2ccccc2)CC1 (stereo not drawn)	109% and 103% and 96%	112% and 106% and 95.2%					> 100 nM	112% and 106% and 107%	114% and 108% and 92.8%	viability, T/C (compound 0.000316 µM): 106% and 107% and 103%; viability, T/C (compound 0.001 µM): 119% and 117% and 92.5%
O=C(c1cc(Cc2n[nH]c(=O)c3ccccc23)ccc1F)N1CCN(C(=O)C2CC2)CC1	98.8% and 105% and 96.8%	111% and 109% and 90.9%	99.9% and 95% and 96.8%	101% and 97.8% and 111%	105% and 104% and 106%	102% and 100% and 83.9%	> 10000 nM			
O=C(c1ccc(F)c(F)c1Nc1ccc(I)cc1F)N1CC(O)([C@@H]2CCCCN2)C1	96.9% and 81.6% and 88.7%	63.6% and 60.9% and 69.5%	58% and 50.6% and 49.3%	13.8% and 24.2% and 28.6%			334 nM and 240 nM and 307 nM	101% and 106% (2×)	95.1% and 106% and 95.4%	
